# Assay results from patent US4748122A, “2,5-diketo-D-gluconic acid reductase” (Shionogi & Co., Ltd., priority 1983, dated 1988).
# Key:
# [1] = test system: 25DKG-Rase derived from Strain T-13; experiment: Enzymatic activity of 25DKG-Rase obtained from T-13 (Example 2); assay type: biochemical, Corynebacterium sp. No. T-13 (ATCC 31,089); details: for Enzymatic activity (relative activity): 100 = activity at pH 7, 30° C.
# Experimental: (§1) Two point nine (2.9) ml of 0.1M TB (pH 7) containing 0.3 μmoles of NADPH was placed in a quartz cubette having 1 cm optical length difference and added 1-5 μl of the enzyme solution obtained above (3) thereto. Then, to the mixture, each 0.1 ml of the various substrate solutions (0.1M) were added while being kept at 30° C. Reactivities of the enzyme on the respective substrates were determined, by means of successive measurement of the decrease in absorption at 340 nm, on the basis of the decrease for 1 minute.
# (§2) The measurements of the physico-chemical properties were conducted in a manner as described in Example 1-(4) (5).
# (§3) Enzymatic activities of 25DKG-Rases obtained from K-106 and T-13 were measured at varying pH from 4 to 9 (substrate: Ca-25DKG, reaction temperature: 30° C.).
# (§4) The enzymatic activities of 25DKG-Rases obtained from K-106 and T-13 were measured at varying temperature (pH 7.0, substrate: Ca-25DKG).
# [2] = test system: 25DKG-Rase derived from Strain K-106; experiment: Enzymatic activity of 25DKG-Rase obtained from K-106 (Example 2); assay type: biochemical, Corynebacterium sp. No. K-106 (ATCC 31,088); details: enzyme from K-106, coenzyme NADH
# [3] = test system: 25DKG-Rase derived from Strain T-13; experiment: Substrate specificity by product formation, enzyme from T-13; assay type: biochemical, Corynebacterium sp. No. T-13 (ATCC 31,089)
# Experimental: (§5) The purified enzyme solution (10 μl) obtained above (3) was mixed with 25 μmoles of a substrate (Ca-25DKG or 5KF) and 3.0 ml of 0.01M TB (pH 7) containing 15 μmoles of NADPH and the mixture was allowed to react at 30° C. for 60 minutes. After the reaction, the reaction mixture was analyzed by paper chromatography (developing solvent; phenol:formic acid:water=75:4:25, chromogenic agent; AHF solution, prepared by dissolving 0.93 g of anilin and 1.66 g of phthalic acid in 100 ml of water-saturated n-butanol and heating at 105° C. for 2 minutes) and by gas chromatography (column; SE-52, carrier gas: Helium, sample; trimethylsilylated derivative). […] In Table 1, the results of quantitative determination of the products by gas chromatography are shown.
# as §2
# [4] = test system: 25DKG-Rase derived from Strain K-106; experiment: Substrate specificity by product formation, enzyme from K-106; assay type: biochemical, Corynebacterium sp. No. K-106 (ATCC 31,088)
# Experimental: as §5, §2
# 25DKG-Rase [5] = target: T1, 25DKG-Rase (Corynebacterium sp., UniProt P15339); assay type: biochemical, Corynebacterium sp. No. 20A-77 mutant (FERM-BP 108); details: 10 μl enzyme solution, 25 μmoles substrate, 15 μmoles NADPH, 30° C., 60 minutes; gas chromatography
# T1 construct: The enzyme is an intracellular enzyme extracted from the cells of the 2KLG producing strain; made in house; host or cells: natural producer Corynebacterium sp; No. 20A-77 mutant FERM-BP 108, enzyme purified from sonicated cells; not recombinant
# T1 sequence (P15339 2-277 limits assumed): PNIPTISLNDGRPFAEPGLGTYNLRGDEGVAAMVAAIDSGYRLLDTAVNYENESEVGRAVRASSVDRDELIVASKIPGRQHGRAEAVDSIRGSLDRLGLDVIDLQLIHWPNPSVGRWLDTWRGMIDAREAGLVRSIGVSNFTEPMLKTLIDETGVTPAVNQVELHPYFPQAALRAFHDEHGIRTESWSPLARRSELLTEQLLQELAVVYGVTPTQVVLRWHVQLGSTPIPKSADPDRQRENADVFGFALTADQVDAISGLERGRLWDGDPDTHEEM
# 25DKG-Rase [6] = target: T1, 25DKG-Rase; experiment: Spectrophotometric enzymatic activity (decrease in absorption at 340 nm), purified enzyme solution of Example 1; assay type: biochemical, Corynebacterium sp. No. 20A-77 mutant (FERM-BP 108); details: for Enzymatic activity: per 1 ml purified enzyme solution
# [7] = test system: 25DKG-Rase derived from Strain K-106; experiment: Enzymatic activity of 25DKG-Rase obtained from K-106 (Example 2); assay type: biochemical, Corynebacterium sp. No. K-106 (ATCC 31,088); details: for Enzymatic activity (relative activity): 100 = activity at pH 7, 30° C.
# Experimental: as §1, §2, §3, §4
# [8] = test system: 25DKG-Rase derived from Strain T-13; experiment: Enzymatic activity of 25DKG-Rase obtained from T-13 (Example 2); assay type: biochemical, Corynebacterium sp. No. T-13 (ATCC 31,089); details: enzyme from T-13, coenzyme NADH
smiles,measurement,setting,value
O=C(O)C(=O)[C@@H](O)[C@H](O)C(=O)CO [Ca-25DKG],Enzymatic activity (relative activity),"[1]; T-13, 22 °C., pH 7.0",64
same,Enzymatic activity (relative activity),"[1]; T-13, 25 °C., pH 7.0",79
same,Enzymatic activity (relative activity),"[1]; T-13, 28 °C., pH 7.0",92
same,Enzymatic activity (relative activity),"[1]; T-13, 30 °C., pH 7.0",100
same,Enzymatic activity (relative activity),"[1]; T-13, 35 °C., pH 7.0",115
same,Enzymatic activity (relative activity),"[1]; T-13, 40 °C., pH 7.0",133
same,Enzymatic activity (relative activity),"[1]; T-13, 45 °C., pH 7.0",128
same,Enzymatic activity (relative activity),"[1]; T-13, 50 °C., pH 7.0",92
same,Enzymatic activity (relative activity),"[1]; T-13, pH 4.0, 30° C.",1
same,Enzymatic activity (relative activity),"[1]; T-13, pH 5.0, 30° C.",65
same,Enzymatic activity (relative activity),"[1]; T-13, pH 6.0, 30° C.",104
same,Enzymatic activity (relative activity),"[1]; T-13, pH 7.0, 30° C.",100
same,Enzymatic activity (relative activity),"[1]; T-13, pH 8.0, 30° C.",64
same,Enzymatic activity (relative activity),"[1]; T-13, pH 9.0, 30° C.",19
same,Enzymatic activity per protein,"[1]; enzyme from Strain T-13, NADPH",89 units/mg protein
same,Enzymatic activity,"[1]; enzyme from Strain T-13, purified enzyme solution, NADPH",15.1 units/ml
same,enzymatic activity using NADH as the coenzyme,[2],≤ 0.1 unit/ml
same,product formed (substrate specificity),[3],produced only Ca-2KLG
same,product formed (substrate specificity),[4],produced only Ca-2KLG
same,Concentration of the product,25DKG-Rase [5],845 µg/mL
same,Enzymatic activity,"25DKG-Rase [6]; 15 °C., pH 7",14 unit/ml
same,Enzymatic activity,"25DKG-Rase [6]; 25 °C., pH 7",29 unit/ml
same,Enzymatic activity,"25DKG-Rase [6]; 27.5 °C., pH 7",44 unit/ml
same,Enzymatic activity,"25DKG-Rase [6]; 30 °C., pH 7",54 unit/ml
same,Enzymatic activity,"25DKG-Rase [6]; 32.5 °C., pH 7",59 unit/ml
same,Enzymatic activity,"25DKG-Rase [6]; 35 °C., pH 7",64 unit/ml
same,Enzymatic activity,"25DKG-Rase [6]; 40 °C., pH 7",67 unit/ml
same,Enzymatic activity,"25DKG-Rase [6]; 45 °C., pH 7",44 unit/ml
same,Enzymatic activity,"25DKG-Rase [6]; 50 °C., pH 7",10 unit/ml
same,Activity of the purified enzyme solution (1 ml),"25DKG-Rase [6]; NADPH, 0.1M TB pH 7, 30° C.",54 units
same,Enzymatic activity,"25DKG-Rase [6]; pH 4.0, 3,3-dimethylglutaric acid buffer",1 unit/ml
same,Enzymatic activity,"25DKG-Rase [6]; pH 5.0, 3,3-dimethylglutaric acid buffer",22 unit/ml
same,Enzymatic activity,"25DKG-Rase [6]; pH 6.0, Good (PIPES) buffer",59 unit/ml
same,Enzymatic activity,"25DKG-Rase [6]; pH 6.5, Good (PIPES) buffer",57 unit/ml
same,Enzymatic activity,"25DKG-Rase [6]; pH 7.0, Good (PIPES) buffer",53 unit/ml
same,Enzymatic activity,"25DKG-Rase [6]; pH 7.0, Tris buffer",54 unit/ml
same,Enzymatic activity,"25DKG-Rase [6]; pH 7.5, Tris buffer",44 unit/ml
same,Enzymatic activity,"25DKG-Rase [6]; pH 8.0, Tris buffer",32 unit/ml
same,Enzymatic activity,"25DKG-Rase [6]; pH 8.5, Tris buffer",11 unit/ml
same,Enzymatic activity,"25DKG-Rase [6]; pH 9.0, Tris buffer",7 unit/ml
same,Enzymatic activity (relative activity),"[7]; K-106, 22 °C., pH 7.0",46
same,Enzymatic activity (relative activity),"[7]; K-106, 25 °C., pH 7.0",69
same,Enzymatic activity (relative activity),"[7]; K-106, 28 °C., pH 7.0",86
same,Enzymatic activity (relative activity),"[7]; K-106, 30 °C., pH 7.0",100
same,Enzymatic activity (relative activity),"[7]; K-106, 35 °C., pH 7.0",115
same,Enzymatic activity (relative activity),"[7]; K-106, 40 °C., pH 7.0",119
same,Enzymatic activity (relative activity),"[7]; K-106, 45 °C., pH 7.0",93
same,Enzymatic activity (relative activity),"[7]; K-106, 50 °C., pH 7.0",44
same,Enzymatic activity (relative activity),"[7]; K-106, pH 4.0, 30° C.",1
same,Enzymatic activity (relative activity),"[7]; K-106, pH 5.0, 30° C.",48
same,Enzymatic activity (relative activity),"[7]; K-106, pH 6.0, 30° C.",103
same,Enzymatic activity (relative activity),"[7]; K-106, pH 7.0, 30° C.",100
same,Enzymatic activity (relative activity),"[7]; K-106, pH 8.0, 30° C.",70
same,Enzymatic activity (relative activity),"[7]; K-106, pH 9.0, 30° C.",6
same,Enzymatic activity per protein,"[7]; enzyme from Strain K-106, NADPH",95 units/mg protein
same,Enzymatic activity,"[7]; enzyme from Strain K-106, purified enzyme solution, NADPH",23.8 units/ml
same,enzymatic activity using NADH as the coenzyme,[8],≤ 0.1 unit/ml
